Measurements: patent EP0412762A2, “Peptide inhibitors of human papilloma virus protein binding to retinoblastoma gene proteins” (priority 1989, dated 1991)
Non-standard residues stand in square brackets, D forms with d. Residues, ends and D or L forms follow the SMILES beside them. No end group written: not given here. *: point of attachment. Abu = CC[C@H](N)C(=O)O; Acm = CC(=O)NC*

Experiments:
[1] = target: T1, binding of the HPV-16 E7 protein to the RBG protein (Homo sapiens, UniProt P06400); assay: Binding inhibition assay in vitro: immune precipitation of RBG protein from Hela lysate with radiolabelled HPV-16 E7 (Example 2); details: for inhibition of the binding of the HPV E7 protein to the RBG protein (in words): summary statement
T1 construct: Whole cell lysates of Hela cells were used as a source of human RBG protein; endogenous in cells; host or cells: HeLa whole cell lysate (RB); rabbit reticulocyte lysate, T7 promoter clone (E7)
T1 sequence (P06400 1-928): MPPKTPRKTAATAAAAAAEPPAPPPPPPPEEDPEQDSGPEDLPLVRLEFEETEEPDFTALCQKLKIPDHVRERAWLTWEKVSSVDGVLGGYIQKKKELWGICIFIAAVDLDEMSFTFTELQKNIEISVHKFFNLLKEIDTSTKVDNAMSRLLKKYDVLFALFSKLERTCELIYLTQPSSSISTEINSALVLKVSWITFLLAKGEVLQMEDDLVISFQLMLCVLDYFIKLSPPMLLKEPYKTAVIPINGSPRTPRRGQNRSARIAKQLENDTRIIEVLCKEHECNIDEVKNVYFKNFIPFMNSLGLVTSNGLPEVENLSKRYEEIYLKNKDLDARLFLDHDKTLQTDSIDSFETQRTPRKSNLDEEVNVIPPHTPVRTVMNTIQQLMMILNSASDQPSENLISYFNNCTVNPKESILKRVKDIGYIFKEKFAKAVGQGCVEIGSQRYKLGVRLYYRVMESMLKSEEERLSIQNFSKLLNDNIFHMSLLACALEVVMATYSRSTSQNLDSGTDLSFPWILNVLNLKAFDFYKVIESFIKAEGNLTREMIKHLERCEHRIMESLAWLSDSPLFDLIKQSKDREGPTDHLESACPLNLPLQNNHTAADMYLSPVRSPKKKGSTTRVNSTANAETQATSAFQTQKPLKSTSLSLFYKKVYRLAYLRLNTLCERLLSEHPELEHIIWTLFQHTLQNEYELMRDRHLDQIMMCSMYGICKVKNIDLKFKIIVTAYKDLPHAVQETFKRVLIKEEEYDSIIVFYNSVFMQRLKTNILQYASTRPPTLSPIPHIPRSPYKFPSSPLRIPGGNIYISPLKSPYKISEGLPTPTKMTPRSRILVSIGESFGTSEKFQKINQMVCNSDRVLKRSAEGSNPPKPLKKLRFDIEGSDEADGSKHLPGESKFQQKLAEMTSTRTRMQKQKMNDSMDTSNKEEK
Experimental: Peptide A, Peptide B, and Acetyl-GRP 20-27 were assayed for their abilities to inhibit the binding of the HPV-16 E7 protein to the RBG protein. Binding inhibition assays were carried out in vitro using a modification of the procedure described by N. Dyson et al., Science 243: 934-936 1989. Whole cell lysates of Hela cells were used as a source of human RBG protein. Rabbit reticulocyte cell free lysates that permit transcription and translation of exogenously added DNAs served as a source of HPV-16 E7 protein. The HPV-16 E7 gene was added to the rabbit reticulocyte lysate as a recombinant DNA clone under the control of a T7 promoter and incubated for 60 minutes at 30°C in the presence of radiolabeled methionine to allow transcription of the HPV-16 E7 gene and translation into E7 protein that contained radiolabeled methionine. The Hela cell and rabbit reticulocyte lysates were then mixed and incubated at 4°C for 90 minutes. After further manipulations a murine antibody against the RBG protein was added and incubated at 4°C for 60 minutes. Next, a rabbit anti-mouse IgG antibody and protein A sepharose was added to the reaction mixture in order to immune precipitate the RBG protein. At the same time, the E7 protein that was bound to the RBG protein was also precipitated. After an additional 60 minute incubation at 4°C the precipitated proteins were isolated by centrifugation and examined by polyacrylamide gel electrophoresis. Following electrophoresis, the polyacrylamide gel was dried and exposed to x-ray film. […] This biochemical protocol yields a quantitative estimate of the binding of HPV-16 E7 protein to the RBG protein in vitro.
These biochemical reactions can be run with or without added synthetic peptides to evaluate the effects of various concentrations of peptides on the binding of the HPV E7 protein to the RBG protein. In our studies, the addition of peptide A to these reaction mixtures at concentrations of 40 uM, 20 uM, or 2 uM caused a reduction in HPV-16 E7 protein binding to the RBG protein of 90%, 90% and 60% respectively. Addition of Peptide B or Acetyl-GRP 20-27 to the reaction mixture at concentrations up to 60 uM had no effect on HPV-16 E7 protein binding to the RBG protein.

RBG Protein/E7 [2] = target: T2, RBG Protein/E7 (Homo sapiens, UniProt P06400); assay: In vitro solution assay for E7/RBG protein complex formation (immunoprecipitation, T24 cell lysates); format: binding; design: Cell lysates used as a source of RBG protein were prepared from human T24 bladder carcinoma cells; endogenous in cells; host or cells: human T24 bladder carcinoma cell lysate
T2 sequence (P06400 1-928): T1 sequence (P06400 1-928)
Experimental: (§1) An in vitro solution assay used for the detection of complex formation between E7 protein and p105-RB has been described by Dyson, et al (30). Cell lysates used as a source of RBG protein were prepared from human T24 bladder carcinoma cells as described (30). C36 and the control antibody Pb416 are monoclonal antibodies directed against RGB protein and SV40 large T protein, respectively. These antibodies were a generous gift from E. Harlow (Cold Spring Harbor Laboratories, Cold Spring Harbor, NY). Immunoprecipitates of E7/RBG protein binding reactions containing serially diluted peptide antagonists were dissolved in 35 µl gel loading buffer (30). Five µl was counted directly in Right Safe (Beckman, Palo Alto, CA.) scintillation cocktail and 25 µl was subjected to sodium dodecyl sulphate poly-acrylamide gel electrophoresis. Gels were dried and exposed to Kodak X-AR film at -70 °C overnight. In order to more rapidly assay large numbers of samples and more easily quantitate the binding results, we developed a plate binding assay for the detection of E7/RBG protein association. Purified recombinant E7 was resuspended in 0.1 M sodium carbonate, pH 9.5, at 1 ng/µl. Fifty microliters of this solution was placed into each well of a polyvinyl chloride microtiter plate (COSTAR 2596, Cambridge, MA.). The plate was gently agitated for 18 hours at 4 °C. The E7 solution was aspirated off and 100 µl of plate blocking buffer (PBB) [50mM Hepes 7.0, 250 mM sodium chloride, 0.1% NP4O, 0.5% (w/v) pigskin gelatin, and 0.02% sodium azide] was added per well. The buffer was removed and the plate was washed three times in the above buffer without the gelatin (PB). Five femtomoles of ³⁵S-methionine (Amersham 1100 Ci/mmole, Arlington Heights, IL.) labeled RBG protein prepared in a rabbit reticulocyte lysate was diluted in PB buffer containing various peptide antagonists to a final volume of 50 µl and added to the E7 treated plate. The plate was again incubated at 4 °C with agitation for 1 hour after which the solution was aspirated and each well washed five times with PB. The top of the plate was removed using a hot wire cutting apparatus (D. Lee, Sunnyvale, CA). Each well was placed in 3 ml of Ready Safe scintillation cocktail (Beckman, Palo Alto, CA.) and counted for 1 minute.
(§2) IC₅₀ values represent the average of at least two experiments in which each concentration of inhibitor was tested in triplicate. The variation between experiments was less than 10%. The 50% inhibition concentrations are micromolar. ND = not determined.

RBG Protein/E7 [3] = target: T2, RBG Protein/E7; assay: Plate binding assay for E7/RBG protein association (E7-coated plate, 35S-labelled RBG protein); design: made in house; host or cells: rabbit reticulocyte lysate (RB, in vitro translation)
Experimental: as §1, §2

[4] = average of at least two experiments, triplicate, read-out: SOLUTION ASSAY RBG Protein/E7 IC₅₀
[5] = average of at least two experiments, triplicate, read-out: PLATE ASSAY RBG Protein/E7 IC₅₀

Molecule | IC50 (RBG Protein/E7 [2]; [4]) [nM] | IC50 (RBG Protein/E7 [3]) [nM] | IC50 (RBG Protein/E7 [3]; [5]) [nM] | also measured
CSCC[C@H](NC(=O)[C@H](CC(C)C)NC(=O)[C@H](Cc1c[nH]cn1)NC(=O)CNC(=O)[C@@H](NC(=O)[C@H](C)NC(=O)[C@H](Cc1c[nH]c2ccccc12)NC(=O)[C@H](Cc1c[nH]cn1)NC(C)=O)C(C)C)C(N)=O [Acetyl-GRP 20-27, reference compound] | – | – | – | effect on HPV-16 E7 protein binding to the RBG protein ([1]; concentrations up to 60 uM): no effect; inhibition of the binding of the HPV E7 protein to the RBG protein (in words) [1]: can not inhibit
CC[C@H](NC(=O)[C@H](Cc1ccc(O)cc1)NC(=O)[C@H](CC(C)C)NC(=O)[C@H](CC(=O)O)NC(=O)[C@@H](N)[C@@H](C)O)C(=O)N[C@@H](Cc1ccc(O)cc1)C(=O)N[C@@H](CCC(=O)O)C(=O)N[C@@H](CCC(N)=O)C(=O)N[C@@H](CC(C)C)C(=O)N[C@@H](CC(N)=O)C(=O)N[C@@H](CC(=O)O)C(=O)N[C@@H](CO)C(=O)N[C@@H](CO)C(N)=O [Peptide 17, [ABU²⁴]-E7-(20-32)-AMIDE] (H-TDLY[Abu]YEQLNDSS-NH2) | 20000 | – | – | –
CC(=O)NCSC[C@H](NC(=O)[C@H](Cc1ccc(O)cc1)NC(=O)[C@H](CC(C)C)NC(=O)[C@H](CC(=O)O)NC(=O)[C@@H](N)[C@@H](C)O)C(=O)N[C@@H](Cc1ccc(O)cc1)C(=O)N[C@@H](CCC(=O)O)C(=O)N[C@@H](CCC(N)=O)C(=O)N[C@@H](CC(C)C)C(=O)N[C@@H](CC(N)=O)C(=O)N[C@@H](CC(=O)O)C(=O)N[C@@H](CO)C(=O)N[C@@H](CO)C(N)=O [Peptide 18, [ACM²⁴]-E7-(20-32)-AMIDE] (H-TDLYC(Acm)YEQLNDSS-NH2) | – | – | – | IC50 (RBG Protein/E7 [2]): > 100000 nM
Ac-DLYCYEQLN-NH2 [Peptide 14, N-Ac-E7-(21-29)-AMIDE] | – | 40 | – | IC50 (RBG Protein/E7 [2]): 1000 nM
Ac-LYCYEQLNDSS-NH2 [Peptide 15, N-Ac-E7-(22-32)-AMIDE] | 10000 | – | 25000 | –
Ac-LYCYEQLNDSS-NH2 [Peptide C, Ac-Leu-Tyr-Cys-Tyr-Glu-Gln-Leu-Asn-Asp-Ser-Ser-NH₂] | – | – | – | concentration at which HPV-16 E7 protein binding to the RBG protein was inhibited ([1]; concentrations as low as): ≤ 1 µM
Ac-TDLYCYEQLN [Peptide 12, N-Ac-E7-(20-29)-ACID] | – | 60 | – | –
Ac-TDLYCYEQLN-NH2 [Peptide 13, N-Ac-E7-(20-29)-AMIDE] | – | 80 | – | –
DLYCYEQLNDSS-NH2 [Peptide 10, E7-(21-32)-AMIDE] | – | 11400 | – | IC50 (RBG Protein/E7 [2]): 20000 nM
E7-(14-29)-AMIDE (DLQPETTDLYCYEQLN-NH2; UniProt P03129 14-29, looked up, fragment) [Peptide 7] | – | – | 80 | –
E7-(18-29)-AMIDE (ETTDLYCYEQLN-NH2; UniProt P03129 18-29, looked up, fragment) [Peptide 8] | 400 | – | 60 | –
TDLFCYEQLN-NH2 [Peptide 19, [Phe²³]-E7-(20-29)-AMIDE] | 1000 | – | 600 | –
TDLYCFEQLN-NH2 [Peptide 20, [Phe²⁵]-E7-(20-29)-AMIDE] | 15000 | – | > 50000 | –
TDLYCYE-NH2 [Peptide 6, E7-(20-26)-AMIDE] | 100000 | – | 3300 | –
TDLYCYENLND-NH2 [Peptide 23, [Asn²⁷]-E7-(20-30)-AMIDE] | 1000 | – | – | –
TDLYCYEQ-NH2 [Peptide 5, [Gln27]]-E7-(20-27)-AMIDE] | 50000 | – | 9100 | –
TDLYCYEQL-NH2 [Peptide 4, E7-(20-28)-AMIDE] | 5000 | – | 700 | –
TDLYCYEQLN [Peptide 11, E7-(20-29)-ACID] | – | 80 | – | –
TDLYCYEQLN-NH2 [Peptide 9, E7-(20-29)-AMIDE] | – | 90 | – | IC50 (RBG Protein/E7 [2]): 1000 nM
TDLYCYEQLND-NH2 [Peptide 2, E7-(20-30)-AMIDE] | – | 80 | – | IC50 (RBG Protein/E7 [2]): 1000 nM
TDLYCYEQLNDSS-NH2 [Peptide 1, E7-(20-32)-AMIDE] | – | 50 | – | IC50 (RBG Protein/E7 [2]): 1000 nM
TDLYCYEQLNDSS-NH2 [Peptide A, Thr-Asp-Leu-Tyr-Cys-Tyr-Glu-Gln-Leu-Asn-Asp-Ser-Ser-NH₂] | – | – | – | reduction in HPV-16 E7 protein binding to the RBG protein ([1]; peptide at 2 uM): 60%; reduction in HPV-16 E7 protein binding to the RBG protein ([1]; peptide at 20 uM): 90%; reduction in HPV-16 E7 protein binding to the RBG protein ([1]; peptide at 40 uM): 90%; inhibition of the binding of the HPV E7 protein to the RBG protein (in words) [1]: inhibited
TDLYCYQQL-NH2 [Peptide 21, [Gln²⁶]-E7-(20-28)-AMIDE] | > 100000 | – | – | –
TDLYSYEQLNDSS-NH2 [Peptide 16, [Ser²⁴]-E7-(20-32)-AMIDE] | 40000 | – | – | –
TNLYCYEQL-NH2 [Peptide 22, [Asn²¹]-E7-(20-28)-AMIDE] | > 100000 | – | – | –
